According to US7887818B2, “Neospora caninum vaccine” (The United States of America as represented by the …, priority 2008, dated 2011):

What was measured:
[1] = test system: NcCyP; assay: ELISA of NcCyP-specific antibody levels in sera of vaccinated mice; format: in vivo, N. caninum; details: mouse sera 1:100, both trials, 3 weeks after challenge
Method: (§1) Adult female BALB/c mice (10-12 weeks old; 15 per group; National Cancer Institute, Frederick, Md.) were immunized s.c. in the lower back with a dose of 20 μg of rNcCyP, rNcSRS2, or 20 μg each of NcCyP and NcSRS2 formulated with adjuvants ImmuMax-SR® (a chitosan-based oil emulsion formulation [U.S. Pat. No. 5,980,912; Nov. 9, 1999]; (Repros Therapeutics Inc., formerly Zonagen Inc., TX) and CpG (ImmunoEasy, Qiagen) (Groups 1, 2, and 3). Control groups received non-recombinant antigen formulated with adjuvants ImmuMax-SR® and CpG (Group 4) or RPMI 1640 alone (Groups 5 and 6). The mice were given a secondary immunization 3 weeks later with the same preparation used in the primary immunization. All mice except for those in Group 6 were challenged s.c. with 10^5 N. caninum tachyzoites (NC1 isolate) in 50 μl RPMI 1640 three weeks following the secondary immunization. Group 6 mice received RPMI 1640 only and remained uninfected throughout the experiment (Table 1). […]
(§2) Antigen-specific antibody levels of vaccinated mice were determined by ELISA using purified rNcCyP or rNcSRS2. […] The wells were incubated with alkaline phosphatase-labeled goat anti-mouse IgG (H+L ch. sp., 1:5,000, Sigma) for 1 hr at RT, followed by addition of p-nitrophenyl phosphate substrate (Sigma), and reading on a microtiter plate reader at […].

[2] = test system: N. caninum tachyzoites (NC1 isolate); assay: Vaccination and N. caninum tachyzoite challenge; N. caninum-specific Nc5 PCR on brain tissue; format: in vivo, BALB/c mice; details: for Positive/Total = number of mice brain positive for N. caninum DNA/total mice in the group: 3 weeks after s.c. challenge with 10^5 tachyzoites; for level of protection against challenge infection compared to control groups: vs non-recombinant- or non-vaccinated groups
Method: (§3) Adult female BALB/c mice (10-12 weeks old; 15 per group; National Cancer Institute, Frederick, Md.) were immunized s.c. in the lower back with a dose of 20 μg of rNcCyP, rNcSRS2, or 20 μg each of NcCyP and NcSRS2 formulated with adjuvants ImmuMax-SR® (a chitosan-based oil emulsion formulation [U.S. Pat. No. 5,980,912; Nov. 9, 1999]; (Repros Therapeutics Inc., formerly Zonagen Inc., TX) and CpG (ImmunoEasy, Qiagen) (Groups 1, 2, and 3). Control groups received non-recombinant antigen formulated with adjuvants ImmuMax-SR® and CpG (Group 4) or RPMI 1640 alone (Groups 5 and 6). The mice were given a secondary immunization 3 weeks later with the same preparation used in the primary immunization. All mice except for those in Group 6 were challenged s.c. with 10^5 N. caninum tachyzoites (NC1 isolate) in 50 μl RPMI 1640 three weeks following the secondary immunization. Group 6 mice received RPMI 1640 only and remained uninfected throughout the experiment (Table 1). All mice were euthanized 3 weeks after challenge infection, and brain tissue and blood were collected at necropsy and processed for Neospora DNA and serum antibody analysis as described (Liddell et al. 1999b. Int J. Parasitol. 29: 1583-1587). Animal use and care of the present study was approved by the BARC Animal Use and Care Committee in accordance with appropriate regulations.
Mouse brain tissue was extracted for DNA using standard procedures (Jenkins et al. 2004, supra). The presence of N. caninum in brain tissue was determined by N. caninum-specific Nc5 PCR using Np6/Np21 primers (Muller et al. 1996. J. Clin. Microbiol. 34: 2850-2852; Yamage et al. 1996. J. Parasitol. 82: 272-279) and an internal standard to control for false negative reactions as described (Jenkins et al. 2004a, supra; Liddell et al. 1999a, supra).

[3] = test system: NcCyP; assay: Western blot detection of anti-NcCyP antibodies in mouse sera (NcAg as antigen); format: in vivo, N. caninum; details: for percent of mice with detectable antibodies against NcCyP: overall data from both trials
Method: as §3
The presence of specific antibodies to NcCyP or NcSRS2 was also confirmed with Western blotting using NcAg as antigen (FIG. 5). In brief, N. caninum tachyzoite protein (equivalent to 10^6 tachyzoites/blot strip) were fractionated by SDS-PAGE under reducing conditions and transblotted to Immobilon membrane (Millipore) in a semi-dry blot apparatus (BioRad). Low-range molecular weight markers (BioRad) were electrophoresed in a separate well to allow for Mr estimation of native N. caninum tachyzoite protein. After blotting, the membranes were cut into vertical strips, treated with blocking agent (PBS-2% non-fat dry milk) for 30 min at RT, and then incubated for 2 hr at RT with a 1:100 dilution of serum from individual mice in each treatment group. The blot strips were then incubated for 1 hr with biotinylated goat anti-mouse IgG (H+L ch. sp., 1:1000 dilution, Sigma Chemical Co.), followed by alkaline-phosphatase-labeled avidin (1:25,000 dilution, Sigma), and developed with NBT-BCIP substrate (Pierce). The blots were washed 3 times between each incubation step with PBS-0.05% Tween 20 (Sigma).

[4] = test system: NcSRS2; assay: ELISA of NcSRS2-specific antibody levels in sera of vaccinated mice; format: in vivo, N. caninum; details: mouse sera 1:100, both trials, 3 weeks after challenge
Method: as §1, §2

[5] = test system: NcSRS2; assay: Western blot detection of anti-NcSRS2 antibodies in mouse sera (NcAg as antigen); format: in vivo, N. caninum
Method: as §3, with “regulations. […]” for “regulations.”

Group 1: recombinant Neospora caninum cyclophilin protein (SEQ ID NO:2), 20 μg formulated with adjuvants ImmuMax-SR and CpG
levels of NcCyP-specific antibodies (ELISA) compared to other groups [1]: significantly higher (p<0.01)
Positive/Total = number of mice brain positive for N. caninum DNA/total mice in the group ([2]; Trial I): 1/15
Positive/Total = number of mice brain positive for N. caninum DNA/total mice in the group ([2]; Trial II): 3/15
average percent of mice brain-positive for N. caninum ([2]; average of both trials): 13%
percent protection ([2]; for both trials, (mice brain negative for Nc DNA/total)x100, formulated with ImmuMax-SR/CpG): 80-93%
Positive/Total (Mean) ([2]; mean positive/total from trials I and II): 2/15
percent of mice brain-positive for N. caninum, range over the trials ([2]; range of trials I and II): 7-20%
level of protection against challenge infection compared to control groups ([2]; listed as NcCyP): significantly higher protection
level of protection against challenge infection compared to control groups ([2]; listed as rNcCyP): higher (p<0.001) levels of protection
number of mice with detectable anti-NcCyP Ab in total mice of the group ([3]; Trial I): 11/14^3
number of mice with detectable anti-NcCyP Ab in total mice of the group ([3]; Trial II): 12/15
percent of mice with detectable antibodies against NcCyP ([3]; listed as NcCyP): about 77%
percent of mice with detectable antibodies against NcCyP ([3]; listed as rNcCyP): 78%
levels of NcSRS2-specific antibodies (ELISA) compared to other groups [4]: higher (p<0.05)
number of mice with detectable anti-NcSRS2 Ab in total mice of the group ([5]; Trial I): 0/14
number of mice with detectable anti-NcSRS2 Ab in total mice of the group ([5]; Trial II): 0/15
